Measurements taken from US20200163984A1, “USE OF ISOVALERYL SPIRAMYCIN I, II AND/OR III IN MANUFACTURING MEDICAMENT FOR TREATING AND/OR PREVENTING TUMOR, AND MEDICAMENT” (SHENYANG FUYANG PHARMACEUTICAL TECHNOLOGY CO., LTD., priority 2017, published 2020).

What was measured:
[1] = system: transplanted tumor of human breast cancer cell MDA-MB-231; assay: MDA-MB-231 transplanted tumor in nude mice; details: MDA-MB-231; 30 mg/kg i.g. 30 days
[2] = system: transplanted tumor of human glioma cell U251; assay: U251 transplanted tumor in nude mice; details: U251 nude mice, 30 mg/kg
Method in brief: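 U251 cells (1×10^7/ml in matrigel, 0.2 ml) implanted subcutaneously in nude mice; at ≥100 mm^3, 6 mice/group dosed intragastrically at 25, 50 or 100 mg/kg for 30 days. Tumor volume (a×b^2/2) every 3 days gave RTV and T/C; inhibition rate from tumor weight after sacrifice.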

[3] = system: transplanted tumor of HL60 cells; assay: HL-60 transplanted tumor in nude mice; details: dose 30 mg/kg
Method in brief: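 HL-60 cells (>95% viable) in matrigel, 0.2 ml at 1×10^7/ml, inoculated subcutaneously at the right armpit of nude mice; once tumors reached ≥100 mm^3, 6 mice/group received 25, 50 or 100 mg/kg intragastrically for 30 days. Tumor volume a×b^2/2, RTV, T/C% and tumor-weight inhibition versus model group.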

SMILES: O=P1(N(CCCl)CCCl)NCCCO1 (stereo not drawn) [Cyclophosphamide, cyclophosphamide, reference compound]
- Body Weight (d 1) [1]: 21.65 ± 1.50 g
- Body Weight (d 30) [1]: 19.26 ± 1.49 g
- Inhibition Rate (tumor growth inhibition rate) [1]: 70.54%
- Relative Tumor Proliferation Rate (T/C) [1]: 37.73%
- Relative Tumor Volume (RTV) [1]: 5.89 ± 2.84
- Tumor Volume (d 1) [1]: 116.90 ± 7.18 mm3
- Tumor Volume (d 30) [1]: 691.84 ± 337.21 mm3
- Tumor Weight [1]: 0.38 ± 0.27 g
- Inhibition Rate (%) [2]: 69.31%
- Relative Tumor Proliferation Rate (T/C) [2]: 62.92%
- Relative Tumor Volume (RTV) [2]: 4.23 ± 0.95
- Tumor Weight [2]: 0.42 ± 0.06 g
- Body Weight (g) (d1) ([2]; d1): 20.72 ± 0.48 g
- Tumor Volume (mm3) (d 1) ([2]; d1): 119.00 ± 11.13 mm3
- Body Weight (g) (d30) ([2]; d30): 19.40 ± 1.40 g
- Tumor Volume (mm3) (d30) ([2]; d30): 504.56 ± 93.91 mm3
- Inhibition Rate (%) [3]: 70.30%
- Relative Tumor Proliferation Rate (T/C) [3]: 24.69%
- Relative Tumor Volume (RTV) [3]: 2.78 ± 1.89
- Tumor Weight [3]: 0.67 ± 0.30 g
- Body Weight (g) (d1) ([3]; d 1): 20.65 ± 1.47 g
- Tumor Volume (mm3) (d 1) ([3]; d 1): 180.63 ± 29.97 mm3
- Body Weight (g) (d30) ([3]; d 30): 18.47 ± 0.91 g
- Tumor Volume (mm3) (d30) ([3]; d 30): 466.98 ± 255.88 mm3
